Data as given in patent US5312831A, “Urethanes and ureas that induce cytokine production” (American Cyanamid Company, priority 1993, dated 1994).
“Also recorded” adds a separate entry of the source.

Tests used:
bone marrow CFU-GM = experiment: Bone marrow CFU-GM in 5-FU treated mice; type: in vivo, mouse
Method: Colony forming assays Granulocyte-Macrophage (CFU-GM)--Mice are treated with 150 mg/kg of 5-Fu and treatment with test compound begins 24 hrs. later. On consecutive days, mice are killed by cervical dislocation and the femurs removed under sterile conditions. Femurs are flushed with 1 ml of ice cold medium (Iscove's supplemented with 20% FCS, 1% penicillin-streptomycin, 1% glutamine and 5×10^-5 M 2-mercaptoethanol). Bone marrow cells (5×10^5) are then plated in 12×75 mm tissue culture plates in 3 ml of warm ararose (3%) in Iscove's medium with 100 Units/ml of recombinant mouse GM-CSF purchased from Genzyme (Boston, Mass.). Plates are incubated for 7 days at 37° C. in 5% CO2. After 7 days, colonies of 50 cells or greater are enumerated under a dissecting microscope. 5-Fluorouracil (5-FU) Induced Neutropenia In Mice--Mice are treated ip with 150 mg/kg of the chemotherapy agent 5-FU which induces a severe loss of neutrophils in the peripheral blood 5-6 days later. Twenty-four hrs. after the dose, treatment with the test compounds is initiated. The effect of the test compounds on recovery of neutrophil progenitor cells in the bone marrow is determined by the CFU-GM assay. […]

neutrophils [1] = experiment: Neutrophil recovery in 5-FU treated mice; type: in vivo, mouse; conditions: for Neutrophils/cu. mm.: day 7 post 5FU 150 mg/kg, 10 mice/group, vehicle 157 ± 52
Method: (§1) Circulating Neutrophil Assay--Mice are treated with 5-FU (150 mg/kg) and beginning 24 hrs. later, treated daily with the test compound. Mice are bled daily by retroorbital puncture in heparinized capillary tubes. Circulating WBC counts are determined by Coulter counter. Blood smears are stained with Wright-Geimsa solution and the percentage circulating neutrophils determined by differential counting under a microscope.
(§2) 5-Fluorouracil (5-FU) Induced Neutropenia In Mice--Mice are treated ip with 150 mg/kg of the chemotherapy agent 5-FU which induces a severe loss of neutrophils in the peripheral blood 5-6 days later. Twenty-four hrs. after the dose, treatment with the test compounds is initiated. The effect of the test compounds on recovery of neutrophil progenitor cells in the bone marrow is determined by the CFU-GM assay. The recovery of circulating neutrophils is followed by differential staining of the peripheral blood.
*Data from 10 mice/group on day 7 post treatment with 150 mg/kg of 5FU.
Beginning 24 hrs. after 5FU dose, mice were treated daily with test
compound at concentrations indicated. Neutrophil count for normal mice (n
**Mice treated with 5FU and vehicle only.

CSF = experiment: Serum colony stimulating factor (CSF) assay in mice; type: in vivo, mouse; conditions: serum 4 hours after injection
Method: Colony forming assays Granulocyte-Macrophage (CFU-GM)--Mice are treated with 150 mg/kg of 5-Fu and treatment with test compound begins 24 hrs. later. On consecutive days, mice are killed by cervical dislocation and the femurs removed under sterile conditions. Femurs are flushed with 1 ml of ice cold medium (Iscove's supplemented with 20% FCS, 1% penicillin-streptomycin, 1% glutamine and 5×10^-5 M 2-mercaptoethanol). Bone marrow cells (5×10^5) are then plated in 12×75 mm tissue culture plates in 3 ml of warm ararose (3%) in Iscove's medium with 100 Units/ml of recombinant mouse GM-CSF purchased from Genzyme (Boston, Mass.). Plates are incubated for 7 days at 37° C. in 5% CO2. After 7 days, colonies of 50 cells or greater are enumerated under a dissecting microscope.
Bone marrow cells are prepared as described above for the CFU-GM assay. The cells are then incubated in soft agar with an 0.3% final concentration of serum taken from mice 4 hours after injection with test compounds. After 7 days of incubation at 37° C., the number of colony forming (CFU) cells per 10^5 plated bone marrow cells is determined by counting colonies of more than 50 cells under a dissecting microscope. The data are reported as CFU/10^5 bone marrow cells.

GCSF [2] = experiment: Serum GCSF in 5-FU treated monkeys; type: in vivo, cynomolgous monkeys
Method: Groups of 3 cynomolgous monkeys are treated with 5FU at 125 mg/kg and
beginning 24 hours later treated with test compound s.c. at 0.05 mg/kg.
The data reported are from sera taken 4 hours after test compound

neutrophils [3] = experiment: Oral dosing: neutrophil recovery in 5-FU treated mice; type: in vivo, mouse; conditions: for Neutrophils/cu. mm.: day 6 after 5-FU 150 mg/kg, 0 dose 178 ± 64
Method: as §1, §2
Groups of 5 mice are treated with 150 mg/kg of 5-FU. One day later, daily oral dosing with test compounds begins and continues for 10 days. […]

GCSF [4] = experiment: Serum GCSF production in mice (NFS-60 bioassay); type: in vivo, mouse; conditions: for GCSF: 4 hours, 10 mice/group
Method: Description of Biological Assays Interleukin 6(IL-6) assay for structure function analysis--Test compounds are dissolved in water and administered subcutaneously in 0.2 ml to deliver a dose of 0.1-10 mg/kg. The less soluble compounds are first dissolved in 100% ethanol and then brought to the appropriate concentration in water. Four hours post injection, the mice are bled and the serum is retrieved. The IL-6 dependent cell line 7TDl is used to assay serial dilutions of sera for IL-6 content. 7TDl cells (1×10^4) are placed in microtiter wells and incubated at 37° C. for 72 hours with standard recombinant mouse IL-6 or with dilutions of serum to be tested. Over the last 6 hours, the cells are pulsed with ^3 H-Tdr (μci). Cells are then harvested and the degree of proliferation determined by the uptake of ^3 H-Tdr as measured by liquid scintillation spectrometry. The concentration of IL-6 in serum is calculated from standard curves utilizing recombinant IL-6 from R&D Systems Inc. and are reported in units of IL-6 activity as defined by the manufacturer.
Granulocyte colony stimulating factor (GCSF) assay--A bioassay for GCSF is performed in an identical fashion to the IL-6 assay except that the GCSF dependent cell line NFS-60 is used in place of the IL-6 dependent 7TDI cell line.
Mice (10/group) are given a single subcutaneous injection of test compoun
and bled 4 hours later. GCSF levels in serum are determined by bioassay
using the GCSF dependent cell line NFS60.

For `CCCCCCC(=O)N[C@@H](C(=O)O)[C@@H](C)OC(=O)N[C@@H](CCC[C@@H](N)C(=O)O)C(=O)N[C@H](C)C(=O)O` [Example 28, [R-(R*,R*)]-N-(R)-6-carboxy-N^2-[[2-carboxy-1-methyl-2-[(1-oxoheptyl)amino]ethoxy]carbonyl]-L-lysyl]-D-Alanine], the CFU-GM/femur (bone marrow CFU-GM; 0.1 mg/kg daily s.c., day 3 after 5FU 150 mg/kg, normal 30184 ± 3677, 5-FU only 805 ± 512) was 6055 ± 534 CFU-GM/femur, the “CFU-GM in the bone marrow (in words)” value (bone marrow CFU-GM; 5-FU treated mice) was “increase of CFU-GM” and the Neutrophils/cu. mm. (neutrophils [1]; 1.56 μg/kg daily) was 722 ± 199 /cu. mm. For the same molecule, the Neutrophils/cu. mm. (neutrophils [1]; 3.12 μg/kg daily) was 424 ± 115 /cu. mm, the Neutrophils/cu. mm. (neutrophils [1]; 6.25 μg/kg daily) was 758 ± 249 /cu. mm and the Neutrophils/cu. mm. (neutrophils [1]; 12.50 μg/kg daily) was 1314 ± 267 /cu. mm. The Neutrophils/cu. mm. (neutrophils [1]; 25.00 μg/kg daily) was 1804 ± 408 /cu. mm, the Neutrophils/cu. mm. (neutrophils [1]; 50.00 μg/kg daily) was 1716 ± 284 /cu. mm and the Neutrophils/cu. mm. (neutrophils [1]; 100.00 μg/kg daily) was 2613 ± 364 /cu. mm. The “neutrophil recovery in 5-FU treated mice (in words)” value (neutrophils [1]; mouse, in vivo) was “enhances the recovery of peripheral blood neutrophils; also recorded: induce neutrophil recovery in 5-FU treated mice”, the “CSF production, CFU/100,000 Bone Marrow Cells” value (CSF; 0.1 mg/kg) was 95 ± 16 CFU/100,000 Bone Marrow Cells and the “CSF production, CFU/100,000 Bone Marrow Cells” value (CSF; 1.0 mg/kg) was 101 ± 8 CFU/100,000 Bone Marrow Cells. The “Serum GCSF” value (GCSF [2]; 0.05 mg/kg s.c., 5FU 125 mg/kg, sera 4 hours after treatment, 5-FU only 0) was 3962 ± 2178 pg/mL, the “GCSF production in the serum of 5-FU treated primates (in words)” value (GCSF [2]; monkey, in vivo) was “induces IL-6 and GCSF production” and the Neutrophils/cu. mm. (neutrophils [3]; 0.1 mg/kg daily oral) was 81 ± 35 /cu. mm. The Neutrophils/cu. mm. (neutrophils [3]; 1 mg/kg daily oral) was 765 ± 209 /cu. mm, the Neutrophils/cu. mm. (neutrophils [3]; 10 mg/kg daily oral) was 1391 ± 350 /cu. mm and the “neutrophil recovery in 5-FU treated mice when given orally (in words)” value (neutrophils [3]; oral) was “active in accelerating neutrophil recovery”. For the same molecule, the GCSF (GCSF [4]; 1.56 μg/kg single s.c.) was 442 ± 52 pg/mL, the GCSF (GCSF [4]; 3.12 μg/kg single s.c.) was 470 ± 59 pg/mL and the GCSF (GCSF [4]; 6.25 μg/kg single s.c.) was 644 ± 267 pg/mL. The GCSF (GCSF [4]; 12.50 μg/kg single s.c.) was 1342 ± 289 pg/mL, the GCSF (GCSF [4]; 25.00 μg/kg single s.c.) was 3352 ± 907 pg/mL and the GCSF (GCSF [4]; 50.00 μg/kg single s.c.) was 1249 ± 138 pg/mL. The “GCSF induction in the serum of mice (in words)” value (GCSF [4]; injected mice) was “induce GCSF in the serum of injected mice”.
